# Results taken from patent US20120214760A1, “TREATMENT OF URINARY TRACT INFECTIONS WITH ANTIBACTERIAL AMINOGLYCOSIDE COMPOUNDS” (Achaogen, Inc., priority 2009, published 2012).
# Where two headings read alike, the source gives them in different places.
# What was measured:
# Assay type in all cases: cell-based
# [1] = tested on: S. aureus ATCC 33591, MRSA; test: MIC of thigh model strain; details: Staphylococcus aureus
# Protocol: (§1) Minimum inhibitory concentrations (MIC) were determined by reference Clinical and Laboratory Standards Institute (CLSI) broth microdilution methods per M7-A7 [2006]. Quality control ranges utilizing E. coli ATCC 25922, P. aeruginosa ATCC 27853 and S. aureus ATCC 29213, and interpretive criteria for comparator agents were as published in CLSI M100-S17 [2007]. Briefly, serial two-fold dilutions of the test compounds were prepared at 2× concentration in Mueller Hinton Broth. The compound dilutions were mixed in 96-well assay plates in a 1:1 ratio with bacterial inoculum. The inoculum was prepared by suspension of a colony from an agar plate that was prepared the previous day. Bacteria were suspended in sterile saline and added to each assay plate to obtain a final concentration of 5×10^5 CFU/mL. The plates were incubated at 35° C. for 20 hours in ambient air.
# Staphylococcal isolates = test: Susceptibility testing, urinary tract infection isolates
# Protocol: as §1
# In order to determine the activity of representative antibacterial aminoglycoside compounds against bacterial species that commonly cause complicated urinary tract infections worldwide, isolates were collected from 47 medical centers in the U.S. and Europe (10 countries) from urine or blood culture with the source of bacteremia documented as a urinary tract infection. Strains were susceptibility tested against Example 1, gentamicin, amikacin and 10 comparators by CLSI broth microdilution. […]
# Pathogens (169 in total) = test: Susceptibility testing, all urinary tract infection isolates; details: all 169 isolates
# Protocol: as §1
# (§2) In order to determine the activity of representative antibacterial aminoglycoside compounds against bacterial species that commonly cause complicated urinary tract infections worldwide, isolates were collected from 47 medical centers in the U.S. and Europe (10 countries) from urine or blood culture with the source of bacteremia documented as a urinary tract infection. Strains were susceptibility tested against Example 1, gentamicin, amikacin and 10 comparators by CLSI broth microdilution. These MIC assays were conducted following the same protocol as set forth in Example 110. Pathogens (169 in total) included E. coli, Klebsiella spp., Enterobacter spp., Citrobacter spp., P. mirabilis, M. Morganii, P. aeruginosa, S. aureus and S. saprophyticus.
# Citrobacter spp. (15) = test: MIC, urinary tract infection isolates
# Protocol: as §1, §2
# E. coli (21) = test: MIC, urinary tract infection isolates
# Protocol: as §1, §2
# P. mirabilis (20) = test: MIC, urinary tract infection isolates
# Protocol: as §1, §2
# S. saprophyticus (19) = test: MIC, urinary tract infection isolates; details: S. saprophyticus
# Protocol: as §1, §2
# M. morganii (15) = test: MIC, urinary tract infection isolates
# Protocol: as §1, §2
# P. aeruginosa (19) = test: MIC, urinary tract infection isolates; details: P. aeruginosa
# Protocol: as §1, §2
# Enterobacter spp. (16) = test: MIC, urinary tract infection isolates
# Protocol: as §1, §2
# S. aureus (23) = test: MIC, urinary tract infection isolates; details: S. aureus
# Protocol: as §1, §2
# Klebsiella spp. (21) = test: MIC, urinary tract infection isolates
# Protocol: as §1, §2
# [2] = tested on: K. pneumoniae ATCC 43816, Susceptible; test: MIC of thigh model strain; details: Klebsiella pneumoniae, ATCC43816; Table 5; K. pneumoniae Susceptible ATCC 43816
# Protocol: as §1
# [3] = tested on: S. marcescens ASMA 1030, KPC; test: MIC of thigh model strain; details: Serratia marcescens; Table 5; S. marcescens KPC ASMA 1030
# Protocol: as §1
# [4] = tested on: K. pneumoniae AKPN 1109, KPC; test: MIC of thigh model strain; details: Klebsiella pneumoniae; Table 5; K. pneumoniae KPC AKPN 1109
# Protocol: as §1
# [5] = tested on: K. pneumoniae AKPN 1073, MDR; test: MIC of thigh model strain; details: Klebsiella pneumoniae; Table 5; K. pneumoniae MDR AKPN 1073
# Protocol: as §1
# E. coli AECO 1003, MDR = test: MIC of thigh model strain; details: Escherichia coli
# Protocol: as §1
# [6] = tested on: E. coli ATCC 25922 (AECO001); test: MIC, CLSI broth microdilution; details: Escherichia coli, ATCC25922; Table 5; E. coli Susceptible ATCC 25922
# Method in brief: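 Test compounds were diluted two-fold at 2× strength in Mueller Hinton Broth, then combined 1:1 with saline-suspended bacteria from an overnight agar colony to reach 5×10^5 CFU/mL. Incubation followed at 35° C. for 20 hours in ambient air, per CLSI reference methods.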
compound,measurement,setting,value
"CN[C@H](CC(C)C)C(=O)N[C@H]1C(=O)N[C@@H](CC(N)=O)C(=O)N[C@H]2C(=O)N[C@H]3C(=O)N[C@H](C(=O)N[C@H](C(=O)O)c4cc(O)cc(O)c4-c4cc3ccc4O)[C@H](O)c3ccc(c(Cl)c3)Oc3cc2cc(c3O[C@@H]2O[C@H](CO)[C@@H](O)[C@H](O)[C@H]2O[C@H]2C[C@](C)(N)[C@H](O)[C@H](C)O2)Oc2ccc(cc2Cl)[C@H]1O [VAN, vancomycin]",MIC,[1],1 µg/mL
O=C1CN(/N=C/c2ccc([N+](=O)[O-])o2)C(=O)N1 [nitrofurantoin],Staphylococcal susceptibility rate,Staphylococcal isolates,33.3%
"NCC[C@H](O)C(=O)N[C@@H]1C[C@H](N)[C@@H](O[C@H]2O[C@H](CN)[C@@H](O)[C@H](O)[C@H]2O)[C@H](O)[C@H]1O[C@H]1O[C@H](CO)[C@@H](O)[C@H](N)[C@H]1O [Amikacin, amikacin, reference compound]",Overall susceptibility rate,Pathogens (169 in total),94.1%
CN[C@@H]1[C@@H](O)[C@@H](O[C@@H]2[C@@H](O)[C@H](O[C@H]3OC(CNCCO)=CC[C@H]3N)[C@@H](N)C[C@H]2NC(=O)[C@@H](O)CCN)OC[C@]1(C)O.O=S(=O)(O)O [ACHN-490],Cumulative % inhibited at ACHN-490 MIC,Citrobacter spp. (15); at 0.5 μg/ml,73.3%
same,Cumulative % inhibited at ACHN-490 MIC,Citrobacter spp. (15); at 1 μg/ml,86.7%
same,Cumulative % inhibited at ACHN-490 MIC,Citrobacter spp. (15); at 2 μg/ml,93.3%
same,Cumulative % inhibited at ACHN-490 MIC,Citrobacter spp. (15); at 4 μg/ml,100.0%
same,Cumulative % inhibited at ACHN-490 MIC,Citrobacter spp. (15); at ≦0.25 μg/ml,0.0%
same,Cumulative % inhibited at ACHN-490 MIC,E. coli (21); at 0.5 μg/ml,19.0%
same,Cumulative % inhibited at ACHN-490 MIC,E. coli (21); at 1 μg/ml,61.9%
same,Cumulative % inhibited at ACHN-490 MIC,E. coli (21); at 2 μg/ml,100.0%
same,Cumulative % inhibited at ACHN-490 MIC,E. coli (21); at ≦0.25 μg/ml,0.0%
same,Cumulative % inhibited at ACHN-490 MIC,P. mirabilis (20); at 0.5 μg/ml,0.0%
same,Cumulative % inhibited at ACHN-490 MIC,P. mirabilis (20); at 1 μg/ml,5.0%
same,Cumulative % inhibited at ACHN-490 MIC,P. mirabilis (20); at 2 μg/ml,45.0%
same,Cumulative % inhibited at ACHN-490 MIC,P. mirabilis (20); at 4 μg/ml,90.0%
same,Cumulative % inhibited at ACHN-490 MIC,P. mirabilis (20); at 8 μg/ml,95.0%
same,Cumulative % inhibited at ACHN-490 MIC,P. mirabilis (20); at 16 μg/ml,100.0%
same,Cumulative % inhibited at ACHN-490 MIC,P. mirabilis (20); at ≦0.25 μg/ml,0.0%
same,Cumulative % inhibited at ACHN-490 MIC,S. saprophyticus (19); at 0.5 μg/ml,94.7%
same,Cumulative % inhibited at ACHN-490 MIC,S. saprophyticus (19); at 1 μg/ml,100.0%
same,Cumulative % inhibited at ACHN-490 MIC,S. saprophyticus (19); at ≦0.25 μg/ml,89.5%
same,Cumulative % inhibited at ACHN-490 MIC,M. morganii (15); at 0.5 μg/ml,0.0%
same,Cumulative % inhibited at ACHN-490 MIC,M. morganii (15); at 1 μg/ml,6.7%
same,Cumulative % inhibited at ACHN-490 MIC,M. morganii (15); at 2 μg/ml,60.0%
same,Cumulative % inhibited at ACHN-490 MIC,M. morganii (15); at 4 μg/ml,86.7%
same,Cumulative % inhibited at ACHN-490 MIC,M. morganii (15); at 8 μg/ml,100.0%
same,Cumulative % inhibited at ACHN-490 MIC,M. morganii (15); at ≦0.25 μg/ml,0.0%
same,Cumulative % inhibited at ACHN-490 MIC,P. aeruginosa (19); at 0.5 μg/ml,0.0%
same,Cumulative % inhibited at ACHN-490 MIC,P. aeruginosa (19); at 1 μg/ml,0.0%
same,Cumulative % inhibited at ACHN-490 MIC,P. aeruginosa (19); at 2 μg/ml,0.0%
same,Cumulative % inhibited at ACHN-490 MIC,P. aeruginosa (19); at 4 μg/ml,36.8%
same,Cumulative % inhibited at ACHN-490 MIC,P. aeruginosa (19); at 8 μg/ml,73.7%
same,Cumulative % inhibited at ACHN-490 MIC,P. aeruginosa (19); at 16 μg/ml,89.5%
same,Cumulative % inhibited at ACHN-490 MIC,P. aeruginosa (19); at 32 μg/ml,100.0%
same,Cumulative % inhibited at ACHN-490 MIC,P. aeruginosa (19); at ≦0.25 μg/ml,0.0%
same,Cumulative % inhibited at ACHN-490 MIC,Enterobacter spp. (16); at 0.5 μg/ml,75.0%
same,Cumulative % inhibited at ACHN-490 MIC,Enterobacter spp. (16); at 1 μg/ml,100.0%
same,Cumulative % inhibited at ACHN-490 MIC,Enterobacter spp. (16); at ≦0.25 μg/ml,0.0%
same,Cumulative % inhibited at ACHN-490 MIC,S. aureus (23); at 0.5 μg/ml,13.0%
same,Cumulative % inhibited at ACHN-490 MIC,S. aureus (23); at 1 μg/ml,60.9%
same,Cumulative % inhibited at ACHN-490 MIC,S. aureus (23); at 2 μg/ml,95.7%
same,Cumulative % inhibited at ACHN-490 MIC,S. aureus (23); at 4 μg/ml,100.0%
same,Cumulative % inhibited at ACHN-490 MIC,S. aureus (23); at ≦0.25 μg/ml,0.0%
same,Cumulative % inhibited at ACHN-490 MIC,Klebsiella spp. (21); at 0.5 μg/ml,95.2%
same,Cumulative % inhibited at ACHN-490 MIC,Klebsiella spp. (21); at 1 μg/ml,100.0%
same,Cumulative % inhibited at ACHN-490 MIC,Klebsiella spp. (21); at ≦0.25 μg/ml,19.0%
"C[C@@H](O)[C@H]1C(=O)N2C(C(=O)O)=C(SCCN=CN)C[C@H]12 [IMP, imipenem, reference compound]",MIC,[2],0.5 µg/mL
same,MIC,[3],> 32 µg/mL
same,MIC,[4],32 µg/mL
same,MIC,[5],0.25 µg/mL
same,MIC,"[1]; Table 5, S. aureus MRSA ATCC 33591, read-out: MIC",> 16 µg/mL
same,MIC,"E. coli AECO 1003, MDR",0.125 µg/mL
same,MIC,[6],0.125 µg/mL
